From US20230144385A1, “ETHANOLAMINE FORMULATION FOR TREATING EPITHELIAL OVARIAN CARCINOMA” (METANOI THERAPEUTICS, INC., priority 2020, published 2023)

How the values were obtained:
[1] = test system: prostate cancer xenografts; assay: Immunoblots and IHC of xenograft tumors; type: in vivo, mice
Excerpt: (§1) FIG. 4. (A) Immunoblots of control and Etn-treated cell lysates for pRb, cdk4, cdk2, p21, c-PARP, Bim, Bcl-2 and β actin. […] (C) Immunoblots of control and Etn-treated tumors lysates for p53, p21, Bax, pBcl-2, c-PARP, Bim, Bid and β actin. (D) Micrographs showing IHC staining of Ki67 and c-PARP in control and Etn-treated prostate cancer xenografts.

PC-3 cells [2] = assay: Annexin V flow cytometry, PC-3 cells; type: cell-based, human
[3] = test system: prostate cancer xenograft (PC-3-luc tumors); assay: Prostate cancer xenograft model, oral treatment; type: in vivo, mice
Excerpt: FIG. 3. (Ai) Representative bioluminescent images of one animal per group indicating progression of tumor growth over 4 weeks in control and Etn-treated mice. (Aii) Tumor growth monitored (by vernier calipers) over a period of 4 weeks. (Aiii) Weight of tumors from control and Etn-treated mice.
The in vivo efficacy of this formulation was first examined (FIG. 3A). There was an ˜67% reduction in tumor volume (FIG. 3Aii) and ˜55% reduction in tumor weight (FIG. 3Aiii) after 4 weeks of treatment.

[4] = GI tract stability, Etn compared with PhosE; type: in vitro ADME; conditions: compared to PhosE
Excerpt: (§2) ADM E and pharmacological properties of orally-delivered PhosE and Etn [both phosphatidylethanolamine (PE) lipid precursors] were first compared. […] Our mechanistic studies identified CK overexpression—a hallmark of metabolic reprogramming in multiple cancer types—in prostate tumor cells compared to adjacent normal. […] It was hypothesize that an Etn-based formulation can be developed into a safe, selective, pharmacodynamically- and pharmacokinetically-favorable, IND entity that singly or synergistically with the ICI Nivolumab, provides a novel therapeutic option for chemo-resistant EOCs/OCCC.

HIF1-α = HIF1-α immunoblot of treated cell lysates; type: cell-based; conditions: Etn-treated cells
Procedure: (§3) FIG. 5. (A) Immunoblots of control and Etn-treated cell lysates for HIF1-α. […] Intracellular glucose (Ci) and glutamine (Cii) levels in control and Etn-treated tumors. (D) Effect of choline kinase inhibition on intracellular levels of glucose (Di) and glutamine (Dii) in Etn-treated cells.
(§4) It was hypothesized that PhosE accumulation alters HIF1-a expression/function that impairs glucose/glutamine metabolism leading to metabolic stress, which activates p53-induced cell death. […] OCR was measured in control and Etn-treated cells, and evaluated the glucose and glutamine content in (a) cultured cells and (b) tumors from control and Etn-treated mice. […] Inhibition of CK abrogated the Etn-mediated decrease in cellular glucose and glutamine content (FIGS. 5Di, ii).

PC-3 cells [5] = assay: Oxygen consumption rate in PC-3 cells; type: cell-based, human
Procedure: as §3, §4

PC-3 cells [6] = assay: MTT cell survival/proliferation assay, PC-3 cells; type: cell-based, human; conditions: 48 hours, pH 7.4, compared with PhosE
Procedure: (§5) PhosE was ineffective in inhibiting proliferation and colony formation of these cell lines up to 100 mg/ml (data not shown).

CYP = assay: CYP-related drug-drug interaction liability; type: in vitro ADME
Excerpt: as §2

[7] = test system: prostate cancer xenograft tumors; assay: TEM and LC/MS-MS lipidomics of xenograft tumors; type: in vivo, mice
Excerpt: FIG. 6. […] Ultra-thin sections were cut on Boeckeler MTx ultramicrotome, counterstained with lead citrate, and examined on a LEO 906e TEM. Mitochondria and accumulated lipid granules are highlighted by red arrows. […] Left panels, scale bar ¼2 […]; right panels, scale bar ¼5 mm. […] Levels of PE (i), PS (ii), PC (iii), and SM (iv) lipids in control and Etn-treated tumors. In the abbreviation of lipid, 1st and 2nd numbers denote the number of carbon atoms and unsaturated bonds present in the lipid, respectively. Lipid amounts were quantified by LC/MS-MS. Values and error bars shown represent mean and SE, respectively.
Lipidomic analyses of tumors from control and Etn-treated groups quantified 402 lipids from various lipid classes such as phosphatidylethanolamine (PE), phosphatidylcholine (PC), phosphatidylserine (PS), lysophospholipids, ceramides, and sphingomyelin (SM). Levels of 21 PE lipids (FIG. 6Bi), and other lipids from the PS (FIG. 6Bii), PC (FIG. […]), and SM (FIG. 6Biv) classes were increased in Etn-treated tumors. Thus, PhosE and phospholipid accumulation downregulates HIF-1α, precipitates a bioenergetics/metabolic crisis, activates p53-mediated signaling and culminates in cell death.

PC-3 cells [8] = assay: Immunoblots of cell cycle and apoptosis markers in PC-3 cell lysates; type: cell-based, human
Excerpt: as §1

PC-3 cells [9] = assay: Intracellular Etn and PhosE levels in treated PC-3 cells; type: cell-based, human; conditions: PC-3 cells treated with Etn or PhosE
Excerpt: (§6) FIG. 2. […] (B) Effect of choline kinase inhibition on proliferation of PC-3 cells. (C) Intracellular PhosE level upon Etn treatment.

[10] = test system: prostate cancer xenograft tumors; assay: Glucose and glutamine content of tumors; type: in vivo, mice; conditions: versus control
Procedure: as §3, §4

PC-3 cells [11] = assay: PC-3 survival on Etn treatment with or without choline kinase inhibitor; type: cell-based, human; conditions: with CK inhibition
Excerpt: as §6

[12] = test system: PC-3, DU145, C42B and RWPE-1 cells; assay: MTT cell survival, prostate cancer lines versus normal prostate cells; type: cell-based; conditions: 0.5 and 1 mg/mL, 48 hours, pH 7.4
Procedure: as §5

[13] = test system: MDA-MB-468, OVCAR-3, HCT116 and CFPAC cells; assay: MTT dose-response on cancer cell lines from diverse tissues; type: cell-based
Procedure: as §5

PC-3 cells [14] = assay: Clonogenic survival assay, PC-3 cells; type: cell-based, human; conditions: 2 mg/mL, pH 7.4, PC-3 cells
Procedure: as §5

cultured cells = assay: Glucose and glutamine content of cultured cells; type: cell-based; conditions: versus control
Procedure: as §3, §4

FR2 = FR2 (Homo sapiens, UniProt P14207); conditions: read-out: affinity; cited from earlier work
Sequence of FR2 (P14207 17-230): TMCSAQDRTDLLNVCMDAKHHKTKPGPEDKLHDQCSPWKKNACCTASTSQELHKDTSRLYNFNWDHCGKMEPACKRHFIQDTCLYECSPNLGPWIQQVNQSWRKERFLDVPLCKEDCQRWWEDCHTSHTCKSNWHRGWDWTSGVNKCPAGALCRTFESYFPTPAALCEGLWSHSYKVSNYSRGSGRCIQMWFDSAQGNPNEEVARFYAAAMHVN

FR1 = FR1 (Homo sapiens, UniProt P15328); conditions: read-out: affinity; cited from earlier work
Sequence of FR1 (P15328 25-234): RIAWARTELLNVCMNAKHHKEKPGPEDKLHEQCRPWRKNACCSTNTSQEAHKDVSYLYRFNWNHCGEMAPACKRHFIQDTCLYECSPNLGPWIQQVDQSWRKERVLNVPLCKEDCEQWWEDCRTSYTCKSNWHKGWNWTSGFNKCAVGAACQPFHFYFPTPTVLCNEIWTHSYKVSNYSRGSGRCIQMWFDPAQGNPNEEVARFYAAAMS

[15] = target: KIFC1/microtubule (MT) binary complex (Homo sapiens, UniProt Q9BW19); conditions: ATP-competitive, MT-noncompetitive; cited from earlier work
Sequence of KIFC1/microtubule (MT) binary complex (Q9BW19 whole entry, species assumed): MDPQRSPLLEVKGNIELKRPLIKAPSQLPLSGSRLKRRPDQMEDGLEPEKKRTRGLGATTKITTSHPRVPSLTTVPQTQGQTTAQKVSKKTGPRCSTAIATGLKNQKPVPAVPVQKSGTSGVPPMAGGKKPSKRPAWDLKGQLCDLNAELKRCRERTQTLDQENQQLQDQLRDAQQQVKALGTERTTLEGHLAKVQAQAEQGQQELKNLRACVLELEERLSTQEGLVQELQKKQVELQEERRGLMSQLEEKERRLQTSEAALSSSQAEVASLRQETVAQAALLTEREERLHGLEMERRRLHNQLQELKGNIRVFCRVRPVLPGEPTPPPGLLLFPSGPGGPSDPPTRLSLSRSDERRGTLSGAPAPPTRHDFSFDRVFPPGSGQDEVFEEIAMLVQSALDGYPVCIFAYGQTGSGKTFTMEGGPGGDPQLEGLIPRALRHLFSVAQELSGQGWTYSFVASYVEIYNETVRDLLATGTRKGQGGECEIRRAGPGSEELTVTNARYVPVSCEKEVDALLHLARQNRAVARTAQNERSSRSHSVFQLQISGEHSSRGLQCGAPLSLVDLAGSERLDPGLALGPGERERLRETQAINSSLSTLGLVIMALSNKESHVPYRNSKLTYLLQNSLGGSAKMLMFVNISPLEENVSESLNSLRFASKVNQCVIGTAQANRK
Sequence of KIFC1/microtubule (MT) binary complex (P68363 whole entry partner, species assumed): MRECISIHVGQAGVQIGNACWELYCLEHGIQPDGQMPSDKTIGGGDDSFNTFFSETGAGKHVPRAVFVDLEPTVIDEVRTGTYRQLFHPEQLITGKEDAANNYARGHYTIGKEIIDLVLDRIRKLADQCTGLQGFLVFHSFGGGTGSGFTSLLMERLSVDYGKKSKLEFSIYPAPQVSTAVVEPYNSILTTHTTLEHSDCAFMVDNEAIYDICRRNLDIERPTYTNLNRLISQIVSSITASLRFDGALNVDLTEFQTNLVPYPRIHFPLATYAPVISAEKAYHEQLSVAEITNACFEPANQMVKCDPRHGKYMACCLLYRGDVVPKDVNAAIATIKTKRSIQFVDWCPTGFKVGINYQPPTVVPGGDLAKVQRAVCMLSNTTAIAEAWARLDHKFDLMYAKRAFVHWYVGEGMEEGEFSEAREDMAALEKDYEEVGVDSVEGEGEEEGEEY
Sequence of KIFC1/microtubule (MT) binary complex (Q9BVA1 whole entry partner, species assumed): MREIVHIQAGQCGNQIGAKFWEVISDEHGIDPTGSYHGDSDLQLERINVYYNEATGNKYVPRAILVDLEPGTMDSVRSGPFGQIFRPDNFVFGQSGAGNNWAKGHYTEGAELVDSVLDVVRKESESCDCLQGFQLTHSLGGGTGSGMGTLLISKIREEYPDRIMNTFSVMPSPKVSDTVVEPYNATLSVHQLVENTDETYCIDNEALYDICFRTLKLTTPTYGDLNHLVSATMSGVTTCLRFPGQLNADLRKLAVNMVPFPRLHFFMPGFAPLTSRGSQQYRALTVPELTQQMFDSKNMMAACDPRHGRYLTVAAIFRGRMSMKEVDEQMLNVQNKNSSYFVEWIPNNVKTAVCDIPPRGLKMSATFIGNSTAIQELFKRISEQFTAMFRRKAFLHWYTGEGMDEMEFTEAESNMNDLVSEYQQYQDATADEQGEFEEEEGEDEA

[16] = test system: BT-549 breast cancer cells; conditions: BT-549 cells with amplified centrosomes; cited from earlier work
[17] = 40 mg/kg Etn, pH=5.0, oral, after 4 weeks

SMILES: NCCO [Etn, Monoethanolamine]
- tumor lysate markers (p53, p21, Bax, pBcl2, c-PARP, Bim, Bid) ([1]; 40 mg/kg Etn): upregulation of p53, p21, Bax, pBcl2, c-PARP, Bim and Bid
- Ki67 and c-PARP expression (IHC) in tumors ([1]; treated versus control tumors): marked decrease in Ki67 expression and increase in c-PARP expression
- annexin-V positive apoptotic cells (PC-3 cells [2]): increased the number of annexin-V positive apoptotic cells
- body weight ([3]; 40 mg/kg Etn, oral, over 4 weeks): no change in body weight
- reduction in tumor volume [3, 17]: ~67%
- reduction in tumor weight [3, 17]: ~55%
- intratumoral Etn ([3]; after 4 weeks of Etn treatment): no significant change
- intratumoral PhosE level versus controls ([3]; after 4 weeks of Etn treatment): ~38%
- GI tract stability [4]: better GI tract stability
- HIF1-a expression (HIF1-α): strongly downregulated
- oxygen consumption rate (OCR) (PC-3 cells [5]): decreased OCR
- inhibition of PC-3 cell proliferation (PC-3 cells [6]): more effective
- CYP-related drug-drug interaction liability (CYP): lacked CYP-related drug-drug interaction liability
- mitochondrial morphology (TEM) ([7]; 40 mg/kg Etn-treated tumors versus controls): elongated mitochondria with highly degraded matrices
- levels of PE, PS, PC and SM lipids ([7]; Etn-treated tumors, LC/MS-MS): increased
- apoptosis markers (c-PARP, Bim, Bcl-2) (PC-3 cells [8]): increased levels of proapoptotic markers such as c-PARP and Bim, and decreased antiapoptotic molecules such as Bcl-2
- cell cycle markers (pRb, Cdk4, Cdk2, p21) (PC-3 cells [8]): downregulated pRb, Cdk4, and Cdk2, and upregulated p21
- intracellular PhosE levels (PC-3 cells [9]): more pronounced
- glucose content [10]: significantly reduced
- glutamine content [10]: significantly reduced
- antiproliferative activity in presence of CK inhibitor (PC-3 cells [11]): significantly attenuated
- conversion of Etn into PhosE in presence of CK inhibitor (PC-3 cells [11]): reduced conversion of Etn into PhosE
- reduction of viability, prostate cancer lines versus normal prostate cells [12]: more effective in reducing viability of prostate cancer lines
- inhibition of proliferation ([13]; breast, ovary, colon and pancreas cell lines): inhibited proliferation in all the cell lines tested
- decrease in colony numbers (PC-3 cells [14]): ~97%
- glucose content (cultured cells): significantly reduced
- glutamine content (cultured cells): significantly reduced

SMILES: CN1c2c(nc(N)[nH]c2=O)NC[C@@H]1CNc1ccc(C(=O)N[C@@H](CCC(=O)O)C(=O)O)cc1 [6S 5-methyltetrahydrofolate]
- Kd (FR2): 0.001 µM
- Kd (FR1): 0.055 µM

SMILES: NCCOP(=O)(O)O [PhosE, phosphoethanolamine, reference compound]
- inhibition of tumor growth compared with Etn ([3]; orally delivered formulations): less effective than Etn
- intracellular PhosE levels (PC-3 cells [9]): increased intracellular PhosE levels
- inhibition of proliferation and colony formation ([13]; up to 100 mg/ml, data not shown): ineffective
- decrease in colony numbers (PC-3 cells [14]): ineffective in decreasing colony numbers

SMILES: CCCc1cc(C(=O)N[C@H](Cc2ccc(-c3cccc(OC(F)(F)F)c3)nc2)C(=O)N[C@@H]2CCNC2)sc1C [AZ82]
- Ki [15]: 0.043 µM
- centrosome declustering [16]: causes centrosome declustering
